Laboratory results from ChEMBL document CHEMBL1143849, “Two new dfr genes in trimethoprim-resistant integron-negative Escherichia coli isolates” (2007).

Experiments:
Escherichia coli [1] = assay: Antimicrobial activity against Escherichia coli U93 isolate by disk diffusion test
Escherichia coli [2] = assay: Antimicrobial activity against Escherichia coli U21 isolate by disk diffusion test

SMILES: COc1cc(Cc2cnc(N)nc2N)cc(OC)c1OC [TRIMETHOPRIM]
- MIC (Escherichia coli [1]): > 32 µg/mL
- MIC (Escherichia coli [2]): > 32 µg/mL
